Entries after “also recorded” stand apart in the source; their conditions may differ.
How the values were obtained:
Assay type in all cases: physicochemical
Miscibility in water = test: Miscibility in water
Excerpt: The BDM molecule is produced following the same process as that used in example 1 (without solvents), using pentanal and glycerol. The substance obtained is confirmed by GC-MS analysis. Its water solubility is approximately 2 g in 100 g water. Beyond that, turbidity appears.

[1] = Solubilisation of non-water soluble active ingredients in water assisted by solvent
Excerpt: Five hydrophobic active ingredients were solubilised in water using EDM.
The following table indicates what mass of solvent (g) must be added to solubilise 1 g of a mixture comprising 98% water and 2% active ingredient.
The smaller the quantity of solvent to be added, the greater its solubilising power.

[2] = Solubility of EDM in oils, alcohols and water
Excerpt: 3/ Solubility of EDM in Oils and Alcohols
The solubility of EDM is studied in various oils, alcohols and water. The solubility results are expressed in g of EDM incorporable into 100 g of oil or ester before turbidity appears.

[3] = Compatibility of EDM with gelling agents
Excerpt: We tested the influence of 5% EDM in gels produced using gelling agents with different chemical natures.

[4] = Stability of the pH of an EDM solution; details: 5% EDM
Experimental: The stability of solutions at different pHs after adding 5% EDM was studied.
The different solutions were prepared: • using citric acid and Na2HPO4 for pHs between 3 and 7, • using boric acid, KCl and NaOH for pHs between 8 and 10.

Solubility in oils = details: before turbidity appears
[5] = Solubilisation of UV filters with ETP, EDM and PDM; details: for Solubility of 1,2-butyl methoxydibenzoylmethane in the solvent: UV filter 1,2-butyl methoxydibenzoylmethane; for Solubility of Benzophenone-3 in the solvent: UV filter Benzophenone-3
Experimental: 4/ Solubilisation of Filters with ETP, EDM and PDM
The solubility of two organic UV filters (benzophenone-3 et 1,2-butyl methoxydibenzoylmethane) are assessed in ETP, EDM and PDM.
• homogenise the mixture for 30 seconds in a vortex mixer, • apply ultrasounds for 15 minutes (repeat if the filter is not miscible up to a maximum of 60 minutes), • for the following percentages, an identical quantity of UV filter is always added to a set initial quantity of solvent.
Solubility is expressed in g of filter soluble in 100 g of final solution.

[6] = Solubilisation of active ingredients in EDM; details: solubility in EDM
Experimental: 5/ Solubilisation of Active Ingredients in EDM
The solubility of the various active ingredients in EDM was studied. It is expressed in g of active ingredient soluble in 100 ml of EDM.

[7] = active ingredient Bisabolol nat.
[8] = active ingredient Eusolex 4360 (Benzophenone 3)
[9] = active ingredient HE eucalyptus (Eucalyptus globulus leaf oil)
[10] = active ingredient Vitamin E (Tocopherol)
[11] = buffer solution initial pH 4.25
[12] = buffer solution initial pH 6.15
[13] = buffer solution initial pH 7.15
[14] = buffer solution initial pH 10.0

## 2-butyl-1,3-dioxolane-4-hydroxymethyl and 2-butyl-1,3-dioxan-5-ol [BDM]
Miscibility in water; beyond that, turbidity appears
  water solubility: approximately 2 g in 100 g water
Miscibility in water
  Miscibility in water: not miscible in water; also recorded: Non-miscible

## 2-ethyl-4-hydroxymethyl-1,3-dioxolane and 2-ethyl-1,3-dioxan-5-ol [EDM]
[1]; [7]
  Mass of solvent to solubilise 1 g of mixture 98% water and 2% active ingredient: 0.9 g
[1]; [8]
  Mass of solvent to solubilise 1 g of mixture 98% water and 2% active ingredient: 1.7 g
[1]; [9]
  Mass of solvent to solubilise 1 g of mixture 98% water and 2% active ingredient: 1 g
[1]; active ingredient Menthol
  Mass of solvent to solubilise 1 g of mixture 98% water and 2% active ingredient: 0.7 g
[1]; [10]
  Mass of solvent to solubilise 1 g of mixture 98% water and 2% active ingredient: 2.0 g
[2]; in Apricot kernel oil
  EDM mass: >100 g of EDM incorporable into 100 g of oil or ester
[2]; in Arlamol E (PPG-15 Stearyl Ether)
  EDM mass: >100 g of EDM incorporable into 100 g of oil or ester
[2]; in Butylene Glycol
  EDM mass: >100 g of EDM incorporable into 100 g of oil or ester
[2]; in Castor oil
  EDM mass: >100 g of EDM incorporable into 100 g of oil or ester
[2]; in DPPG (Propylene glycol dipelargonate)
  EDM mass: >100 g of EDM incorporable into 100 g of oil or ester
[2]; in Glycerine
  EDM mass: >100 g of EDM incorporable into 100 g of oil or ester
[2]; in IPM (Isopropyl myristate)
  EDM mass: >100 g of EDM incorporable into 100 g of oil or ester
[2]; in Labrafac CC (Caprylic/capric triglyceride)
  EDM mass: >100 g of EDM incorporable into 100 g of oil or ester
[2]; in PEG-300
  EDM mass: >100 g of EDM incorporable into 100 g of oil or ester
[2]; in Propylene Glycol
  EDM mass: >100 g of EDM incorporable into 100 g of oil or ester
[2]; in Tegosoft TN (C12/C15 alkyl benzoate)
  EDM mass: >100 g of EDM incorporable into 100 g of oil or ester
[2]; in Water
  EDM mass: >100 g of EDM incorporable into 100 g of oil or ester
[3]; 5% EDM in gels of Blanose 7HF, Jaguar HP 105, Keltrol T, Natrosol 250HX (cell wraps: Small variation)
  Viscosity variation: Small
[3]; 5% EDM in gels of Novemer EC-1, Sepigel 305
  Viscosity drop: Drop >30%
[3]; 5% EDM, gelling agents of the different families tested
  Breaking of gels on adding EDM: none of the gels formulated is broken
[4]; buffer solution initial pH 3.1
  pH after adding EDM: 3.15
  pH at 1 month: 3
[4]; [11]
  pH after adding EDM: 4.3
  pH at 1 month: 4.2
[4]; buffer solution initial pH 5.1
  pH after adding EDM: 5.15
  pH at 1 month: 5.1
[4]; [12]
  pH after adding EDM: 6.2
  pH at 1 month: 6.1
[4]; [13]
  pH after adding EDM: 7.2
  pH at 1 month: 7.1
[4]; buffer solution initial pH 8.0
  pH after adding EDM: 8.0
  pH at 1 month: 8.0
[4]; buffer solution initial pH 9.0
  pH after adding EDM: 9.1
  pH at 1 month: 9.0
[4]; [14]
  pH after adding EDM: 10.0
  pH at 1 month: 10.0
[4]; buffer solutions pH 3 to 10, not significant
  pH variations observed: approximately 0.1 pH units
Solubility in oils
  Solubility in Medium-chain triglyceride (MCT): >100 g of solvent solubilised in 100 g of oil or ester
  Solubility in Octyldodecanol myristate (ODM): 50 g of solvent solubilised in 100 g of oil or ester
  Solubility in Sunflower oil: >100 g of solvent solubilised in 100 g of oil or ester
Miscibility in water
  Miscibility in water: Miscible
[5]
  Solubility of 1,2-butyl methoxydibenzoylmethane in the solvent: >32 g of filter soluble in 100 g of final solution
  Solubility of Benzophenone-3 in the solvent: >40 g of filter soluble in 100 g of final solution

## 2-propyl-4-hydroxymethyl-1,3-dioxolane with 2-propyl-1,3-dioxan-5-ol [PDM]
Solubility in oils
  Solubility in Medium-chain triglyceride (MCT): >100 g of solvent solubilised in 100 g of oil or ester
  Solubility in Octyldodecanol myristate (ODM): 100 g of solvent solubilised in 100 g of oil or ester
  Solubility in Sunflower oil: >100 g of solvent solubilised in 100 g of oil or ester
Miscibility in water
  Miscibility in water: Miscible
[5]
  Solubility of 1,2-butyl methoxydibenzoylmethane in the solvent: 22 g of filter soluble in 100 g of final solution
  Solubility of Benzophenone-3 in the solvent: 18 g of filter soluble in 100 g of final solution

## CO[C@H]1CO[C@H]2[C@@H]1OC[C@H]2OC [Arlasolve DMI, Dimethyl Isosorbide, reference compound]
[1]; [7]
  Mass of solvent to solubilise 1 g of mixture 98% water and 2% active ingredient: 2.3 g
[1]; [8]
  Mass of solvent to solubilise 1 g of mixture 98% water and 2% active ingredient: 2.3 g
[1]; [9]
  Mass of solvent to solubilise 1 g of mixture 98% water and 2% active ingredient: 2.2 g
[1]; active ingredient Menthol
  Mass of solvent to solubilise 1 g of mixture 98% water and 2% active ingredient: 1.7 g
[1]; [10]
  Mass of solvent to solubilise 1 g of mixture 98% water and 2% active ingredient: 5.0 g

## CC(C)=CCC[C@](C)(O)C1CC=C(C)CC1 (some centres unmarked) [Bisabolol nat., Bisabolol]
[6]
  Mass of active ingredient (g): >100 g of active ingredient soluble in 100 ml of EDM

## CCC1(CO)COC(C)OC1 (centres unmarked) [ETP, 2-methyl-5-ethyl-5-hydroxymethyl-1,3-dioxane]
Solubility in oils
  Solubility in Medium-chain triglyceride (MCT): >100 g of solvent solubilised in 100 g of oil or ester
  Solubility in Octyldodecanol myristate (ODM): 100 g of solvent solubilised in 100 g of oil or ester
  Solubility in Sunflower oil: >100 g of solvent solubilised in 100 g of oil or ester
Miscibility in water
  Miscibility in water: Miscible
[5]
  Solubility of 1,2-butyl methoxydibenzoylmethane in the solvent: 5 g of filter soluble in 100 g of final solution
  Solubility of Benzophenone-3 in the solvent: 35 g of filter soluble in 100 g of final solution

## CC1CCC(C(C)C)C(O)C1 (centres unmarked) [Menthol]
[6]
  Mass of active ingredient (g): >100 g of active ingredient soluble in 100 ml of EDM

## CCCCC(CC)COC(=O)C=Cc1ccc(OC)cc1 (centres unmarked) [Parsol MCX, Ethylhexyl methoxycinnamate]
[6]
  Mass of active ingredient (g): >100 g of active ingredient soluble in 100 ml of EDM

## Glycerol formal [reference compound]
Solubility in oils
  Solubility in Medium-chain triglyceride (MCT): <12 g of solvent solubilised in 100 g of oil or ester
  Solubility in Octyldodecanol myristate (ODM): <12 g of solvent solubilised in 100 g of oil or ester
  Solubility in Sunflower oil: 12 g of solvent solubilised in 100 g of oil or ester
Miscibility in water
  Miscibility in water: Miscible

## Retinal [Vitamin A]
[6]
  Mass of active ingredient (g): >100 g of active ingredient soluble in 100 ml of EDM

## Tocopherol [Vitamin E]
[6]
  Mass of active ingredient (g): >100 g of active ingredient soluble in 100 ml of EDM

— patent US20080280997A1, “Novel Pharmaceutical or Cosmetic Carriers Containing Cyclic Acetals” (GATTEFOSSE SAS, priority 2004, published 2008)
